In the RepoRT retention time repository one finds LC retention time data, which are given here for 31 compounds.

The series can be described thus: Waters ACQUITY UPLC BEH C18, 100 × 2.1 mm, 1.7 µm, 40 °C, 0.3 to 0.4 mL/min, estimated dead time 0.63 min; A: water + 0.1% formic acid; B: methanol + 0.1% formic acid; gradient (min/%B) 0/0.5 0.1/0.5 10/80 10.1/99.5 12/99.5. To be noted: stereoisomer not certain.
As to `CC1CCC2(C(=O)OC3OC(COC4OC(CO)C(OC5OC(C)C(O)C(O)C5O)C(O)C4O)C(O)C(O)C3O)CCC3(C)C(=CCC4C5(C)CC(O)C(O)C(C)(CO)C5C(O)CC43C)C2C1C` (stereo unspecified), the LC retention time was 4.88 min. Regarding `CC(C)=CCC=C(C)C1CCC2(C)C1C(O)CC1C3(C)CCC(OC4OC(CO)C(O)C(O)C4OC4OC(CO)C(O)C(O)C4O)C(C)(C)C3CCC12C` (stereo unspecified), the LC retention time was 9.63 min. Consider `CCC1CN2CCc3cc(OC)c(OC)cc3C2CC1CC1NCCc2cc(OC)c(OC)cc21` (stereo unspecified), for which the LC retention time is 3.41 min. In the case of `CC(NC(=O)Cc1c[nH]c2ccccc12)C(=O)O` (stereo unspecified) it was 4.55 min; in that of `CC1(C)CC2C3=CCC4C5(C)CCC(O)C(C)(CO)C5CCC4(C)C3(C)CCC2(C)C(O)C1O` (stereo unspecified), 8.94 min.

Consider `COc1c(O)cc(O)c2c(=O)cc(-c3ccccc3)oc12`, for which the LC retention time was 7.27 min. The same measure for `O=C1NCC(=O)N2CCCC12` (stereo unspecified): 2.06 min; for `OCC1OC(Oc2cc(O)cc(C=Cc3ccc(O)cc3)c2)C(O)C(O)C1O` (stereo unspecified): 4.05 min. The same measure for `COc1cc(-c2oc3cc(O)cc(O)c3c(=O)c2O)cc(O)c1O`: 5.37 min; for `COc1ccc(CC2c3cc(OC)c(OC)cc3CCN2C)cc1OC` (stereo unspecified): 4.26 min; for `COc1cc(C=O)ccc1OC(C)=O`: 5.59 min. The same measure for `O=c1ccc2cc(OC3OC(CO)C(O)C(O)C3O)c(O)cc2o1` (stereo unspecified): 2.87 min. With `O=c1oc2cc(O)ccc2c2oc3cc(O)ccc3c12`, the LC retention time is 5.97 min. The same measure for `c1ccc2c3ccn4cc5c(cc4c-3nc2c1)CCCC5`: 5.23 min. The same measure for `COc1ccc2c(c1)OC1c3ccc(O)cc3OCC21` (stereo unspecified): 5.92 min; for `COc1cc(-c2oc3cc(O)cc(O)c3c(=O)c2O)ccc1O`: 6.14 min; for `CN(C)CCc1ccc(O)cc1`: 2.05 min. In the case of `CCN1CC2(CO)CCC(OC)C34C5CC6C(OC)CC(O)(C5C6OC)C(O)(C(OC)C23)C14` (stereo unspecified) it was 3.67 min; in that of `COc1cc2ccc(=O)oc2cc1O`, 4.24 min.

On to `Cc1c(N)c(=O)n(-c2ccccc2)n1C`, for which the LC retention time was 2.76 min. In the case of `CC(C)=CCCC(C)(OC1OC(CO)C(O)C(O)C1O)C1CCC2(C)C1C(O)CC1C3(C)CCC(O)C(C)(C)C3CCC12C` (stereo unspecified), the LC retention time was 9.51 min. The same measure for `COc1cc(C2OCC3C(c4cc(OC)c(OC5OC(CO)C(O)C(O)C5O)c(OC)c4)OCC23)cc(OC)c1OC1OC(CO)C(O)C(O)C1O` (stereo unspecified): 3.61 min. The same measure for `CCCCCC(=O)OC1C(OC2(CO)OC(CO)C(OC(C)=O)C2O)OC(CO)C(OC(=O)CCCC)C1OC(=O)CCCC` (stereo unspecified): 9.02 min. Turning to `C=CC1C(OC2OC(CO)C(O)C(O)C2O)OC=C(C(=O)OC)C1CC1NC(C(=O)O)Cc2c1[nH]c1ccccc21` (stereo unspecified), the LC retention time is 4.13 min.

For the compound `COc1ccc(C2CC(=O)c3c(O)cc(OC4OC(COC5OC(C)C(O)C(O)C5O)C(O)C(O)C4O)cc3O2)cc1` (stereo unspecified), the LC retention time was 5.33 min.

Take `c1ccc2c(c1)[nH]c1cnccc12`: the LC retention time was 3.48 min. On to `CC1CCC2C(C)C3C(CC4C5CC=C6CC(OC7OC(CO)C(O)C(O)C7OC7OC(C)C(O)C(O)C7O)CCC6(C)C5CCC43C)N2C1` (stereo unspecified), for which the LC retention time was 4.94 min.

Turning to `CC(=O)OCC1OC(Oc2ccc3c(=O)c(-c4ccc(O)cc4)coc3c2)C(O)C(O)C1O` (stereo unspecified), the LC retention time was 4.57 min.

For the compound `CC1(C)CC2C3=CCC4C5(C)CCC(OC6OC(C(=O)O)C(O)C(O)C6OC6OC(CO)C(O)C(O)C6OC6OC(CO)C(O)C(O)C6O)C(C)(CO)C5CCC4(C)C3(C)CCC2(C)CC1OC1OCC(O)C(O)C1O` (stereo unspecified), the LC retention time is 5.5 min. On to `O=c1cc[nH]c2ccccc12`, for which the LC retention time is 2.93 min. The same measure for `CC(C)=CCc1cc(C(O)=CC(=O)c2cc(CC=C(C)C)c(O)cc2O)ccc1O`: 9.52 min.
